Measurements: PMC9197583 (Chemical communications (Cambridge, England), 2022)

Target: T1, NrtA (Synechocystis sp. PCC 6803, UniProt P73452)
T1 sequence (P73452 30-446): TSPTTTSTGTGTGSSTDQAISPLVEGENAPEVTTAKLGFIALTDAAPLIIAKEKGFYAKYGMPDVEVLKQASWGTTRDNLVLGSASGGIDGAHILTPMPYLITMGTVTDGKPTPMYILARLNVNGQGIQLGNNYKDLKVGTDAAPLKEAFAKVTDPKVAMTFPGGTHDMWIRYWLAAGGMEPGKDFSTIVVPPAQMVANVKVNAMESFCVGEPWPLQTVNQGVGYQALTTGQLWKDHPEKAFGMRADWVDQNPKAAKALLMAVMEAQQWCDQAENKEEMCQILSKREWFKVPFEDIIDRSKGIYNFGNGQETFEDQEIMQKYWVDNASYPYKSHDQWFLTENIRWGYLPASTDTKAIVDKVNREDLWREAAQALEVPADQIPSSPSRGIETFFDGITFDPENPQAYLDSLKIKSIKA
Assay: isothermal titration calorimetry
Format: binding

Row | SMILES | Kd [nM]
1 | O=[N+]([O-])O [nitrate] | 57 ± 23
2 | O=NO [nitrite] | 230 ± 33
